In patent US20240317806A1, “TOPICAL PEPTIDE FORMULATION FOR THE TREATMENT OF SEXUAL DYSFUNCTION” (priority 2023, published 2024):

Tests used:
[1] = Mean arterial pressure and dermal irritation in the erectile function study; assay type: in vivo, Sprague Dawley rats; conditions: for MAP: mean ± standard deviation
Protocol: (§1) Erectile function was evaluated by means of the intracavernosal pressure/mean arterial pressure (ICP/MAP) ratio at 4 different times (0, 15, 30 and 45 minutes) after application of ganglionic electrical functional stimulus (EFS) of 8 Hz.
(§2) The formulated peptide (both with TFA counter-ion and Acetate) was applied topically to the penis of the rats 15 minutes before ICP/MAP measurements, at a dose of 1000 μg diluted in 200 μL of the formulation (dose of 4 mg/Kg), reaching a concentration of 5 mg/mL or 0.5% w/v of the peptide in the formulation. Sildenafil was applied SC, at a dose of 25 mg/Kg (1 mL/Kg) 30 minutes before ICP/MAP measurements.

[2] = system: erectile function of healthy rats; test: Erectile function (ICP/MAP ratio) after ganglionic electrical stimulation; assay type: in vivo, Sprague Dawley rats; conditions: peptide topical 4 mg/Kg 15 min before; sildenafil SC 25 mg/Kg 30 min before; EFS 8 Hz; 0-45 min
Source text: For this study, PnPP-19 was produced with TFA or Acetate as a counter-ion. Usually, peptides with TFA as a counter-ion are used in the preclinical stage of development; nevertheless, for safety purposes, the counter-ion is changed to acetate for clinical stage of development. […] Also, to compare if the counter-ion exchange would impact the biological effect of PnPP-19, two peptide batches was produced: one with the counter-ion TFA and another with the counter-ion Acetate. Sildenafil was used as a positive control (subcutaneously administration).
as §1, §2

[3] = Release test in Franz vertical diffusion cells; assay type: in vitro ADME; conditions: peptide applied in saline or in the buffer of the formulations; after 6 hours (peak) and until 24 hours
Protocol: For the release test, a cellulose acetate membrane was used to generate the physical barrier between a donor compartment, where the formulations are added, and the recipient compartment, where the peptide is measured.
(§3) The assays were conducted in Franz vertical diffusion cells with 1.767 cm^2 of area for diffusion of the peptide, containing a donor compartment with a capacity of 1 mL and a recipient compartment with a capacity of 7 mL. To the recipient compartment, 7 mL of the biorelevant solution were added, in which the media selected by preliminary studies was 20 mM sodium acetate buffer pH 5.0+0.5% Tween® 20. […] The cells were placed in a thermostatic bath, with a temperature of 37° C.±0.5° C., with the goal to mimic the surface temperature. The bioreceptor medium was subjected to 350 rpm agitation. In times 0.5-, 1-, 2-, 4-, 6- and 24 h, collections of 1 mL were made from the recipient compartment, in order to measure the peptide content.

[4] = Phase 1 clinical study: pharmacokinetics; assay type: in vivo, human; conditions: 12 subjects
Protocol: Related to the pharmacokinetic analysis, the following outcomes were considered: detection of BZ371A, and its fragments, in the blood at the following collected times: pre-dose, 15, 30, 60, 180 and 360 minutes; if detected, determine the pharmacokinetic parameters: maximum concentration, half-life, area under the curve, clearance, volume of distribution.

[5] = Physicochemical properties of PnPP-19 peptide (pI, pKa)
Source text: Aspects of the disclosure relate to pharmaceutical compositions comprising a PnPP-19 peptide (e.g., a peptide comprising or consisting of the amino acid sequence set forth in SEQ ID NO: 1). PnPP-19 is a synthetic, non-toxic peptide composed of 19 amino acid residues originating from the PnTx2-6 toxin, which was isolated from the venom of the Brazilian armadeira spider (Phoneutria nigriventer). In some embodiments, the isolated peptide (e.g., PnPP-19) is presented as a freeze-dried white powder (e.g., a solid physical form). In some embodiments, PnPP-19 is an amphipathic peptide with about 26% cationic amino acid residues. In some embodiments, PnPP-19 is positively charged at pH 7.

[6] = Second permeation test in Franz cells; assay type: in vitro ADME; conditions: Strat-M membrane; applied in the FAPP20 buffer (20 mM sodium acetate buffer solution)
Protocol: In the first permeation assay, the physical barrier was the whole pig skin, which mimics the human stratum corneum. In the second permeation test, the physical barrier was the Strat-M membrane, which mimics the human stratum corneum.
as §3
In the first permeation assay, PnPP-19 was formulated with 6 μM of alpha cyclodextrin or with transcutol 15%.
Based on the release results described above, the 20 mM sodium acetate buffer pH 5.0+0.5% Tween® 20 was confirmed as the best receiving medium to be used in the permeation assay with Strat M membrane.

[7] = Biodistribution and pharmacokinetics after topical administration of radiolabeled PnPP-19 in FAPP20; assay type: in vivo, rats
Protocol: In order to evaluate the in vivo permeation of the peptide (and/or its fragments) in the formulation FAPP20, a biodistribution study was carried out in healthy rats. The peptide was radiolabeled with iodine [^131I] NaI using chloramine T method.
The study was conducted considering the dose of 5 mg/ml; and the maximum area of genital application. The final application volume was 100 μL that results in a dose of 2 mg/kg. The evaluation of biodistribution was carried out after the administration of a single dose of the peptide, applied topically to the skin of the penis after trichotomy of the rat's genital area.
Regarding biodistribution data, radiolabeled peptide concentrations were higher in skin, foreskin and SMC tissue at all times studied. In the first analyzed time, of 15 minutes, it was already possible to detect the peptide in the target tissues: the SMC layer, and the first layer of the skin, where the penile nerves are found (herein called of foreskin), showing that the peptide is rapidly absorbed into the skin. Within 30 minutes, its detection falls at the initial application site (skin), and increases in the foreskin, showing that it continues to be absorbed, and remains stable in the SMC layer. Within 60 minutes it is practically undetectable in tissues (FIG. 4).
For the pharmacokinetic (PK) study, the blood of the animals was collected at 0 h (predose), 15, 30 and 60 minutes, 3, 8 and 24 hours. All samples collected were quantified in a Wizard 3 gamma counter (PerkinElmer) for later calculation of the percentage of dose applied per gram of organ. […] While 42% of the applied dose is in the first layer of the skin, the peptide is detected in up to 18% in the SMC layer. Both peptide and its fragments were not found systemically (<1%) in the organs of choice (kidneys, testicles and epididymis) or in the blood, at any of the evaluated time-points, showing that the formulation remains in the application site, with no systemic absorption.

| Compound | MAP ([1]; 0 min) | MAP ([1]; 15 min) | MAP ([1]; 30 min) | MAP ([1]; 45 min) | effect on MAP / systemic hypotension compared to vehicle ([1]; rats) | erectile function (ICP/MAP ratio) compared to negative control (vehicle) [2] | quantification of PnPP-19 in the receptor media (controls) [3] | plasma concentrations of BZ371A fragments ([4]; no detectable concentrations, limit of detection=40 ng/ml) | plasma concentrations of BZ371A ([4]; no quantifiable concentrations, LIQ=50 ng/ml, pre-dose to 360 minutes) | pKa [5] | detection of PnPP-19 in the receptor compartment (control) [6] | applied dose/gram found in CC tissue (SMC layer) ([7]; 15 minutes after topical application to rat penis, normalized) | applied dose/gram found in the skin ([7]; 15 minutes after topical application to rat penis, normalized to total in all tissues) | peptide and fragments found systemically (kidneys, testicles, epididymis, blood) ([7]; any of the evaluated time-points up to 24 hours) |
| --- | --- | --- | --- | --- | --- | --- | --- | --- | --- | --- | --- | --- | --- | --- |
| CCCc1nn(C)c2c(=O)[nH]c(-c3cc(S(=O)(=O)N4CCN(C)CC4)ccc3OCC)nc12 [Sildenafil, sildenafil] | 87 ± 10 (**) mmHg | 93 ± 8 (*) mmHg | 93 ± 8 (***) mmHg | 94 ± 7 (***) mmHg | significant decrease in MAP | not superior to the negative control group |  |  |  |  |  |  |  |  |
| Ac-GERRQYFWIAWYKLANSKK-NH2 [PnPP-19] |  |  |  |  |  |  | can be quantified in the receptor media | < 40 ng/mL | < 50 ng/mL | 12.4 | detected in the receptor compartment since initial time (0.5 h) | up to 18% | 42% | < 1% |
